Results from ChEMBL document CHEMBL3297661, “1-Substituted-5-[(3,5-dinitrobenzyl)sulfanyl]-1H-tetrazoles and their isosteric analogs: A new class of selective antitubercular agents active against drug-susceptible and multidrug-resistant mycobacteria” (Eur J Med Chem, 2014).
≈ marks a conversion by molar mass, not a printed value.

Legend:
Mycobacterium kansasii [1] = assay: Antimycobacterial activity against Mycobacterium kansasii 6509/96 after 14 days by micromethod; type: functional; conditions: 6509/96, 336 h
Mycobacterium kansasii [2] = assay: Antimycobacterial activity against Mycobacterium kansasii CNCTC My 235/80 after 14 days by micromethod; type: functional; conditions: CNCTC My 235/80, 336 h
Mycobacterium kansasii [3] = assay: Antimycobacterial activity against Mycobacterium kansasii 6509/96 after 7 days by micromethod; type: functional; conditions: 6509/96, 168 h
Mycobacterium kansasii [4] = assay: Antimycobacterial activity against Mycobacterium kansasii 6509/96 after 21 days by micromethod; type: functional; conditions: 6509/96, 504 h
Klebsiella pneumoniae [5] = assay: Antibacterial activity against extended spectrum beta-lactamase producing Klebsiella pneumoniae J 14368/08 after 48 hrs by broth microdilution method; type: functional; conditions: J 14368/08, 48 h
Staphylococcus aureus [6] = assay: Antibacterial activity against Staphylococcus aureus ATCC 6538 after 24 hrs by broth microdilution method; type: functional; conditions: ATCC 6538, 24 h
Enterococcus faecalis [7] = assay: Antibacterial activity against Enterococcus faecalis J 14365/08 after 24 hrs by broth microdilution method; type: functional; conditions: J 14365/08, 24 h
[8] = system: Staphylococcus epidermidis; assay: Antibacterial activity against Staphylococcus epidermidis H 6966/08 after 24 hrs by broth microdilution method; type: functional; conditions: H 6966/08, 24 h
Mycobacterium avium [9] = assay: Antimycobacterial activity against Mycobacterium avium CNCTC My 330/88 after 21 days by micromethod; type: functional; conditions: CNCTC My 330/88, 504 h
Lichtheimia corymbifera [10] = assay: Antifungal activity against Absidia corymbifera 272 after 48 hrs by broth microdilution method; type: functional, organism-based; conditions: Lichtheimia corymbifera, 272, 48 h
Staphylococcus aureus [11] = assay: Antibacterial activity against methicillin-resistant Staphylococcus aureus H 5996/08 after 24 hrs by broth microdilution method; type: functional; conditions: H 5996/08, 24 h
Pichia kudriavzevii [12] = assay: Antifungal activity against Candida krusei E28 after 48 hrs by broth microdilution method; type: functional; conditions: E28, 48 h
Mycobacterium kansasii [13] = assay: Antimycobacterial activity against Mycobacterium kansasii CNCTC My 235/80 after 7 days by micromethod; type: functional; conditions: CNCTC My 235/80, 168 h
[14] = system: Trichophyton mentagrophytes; assay: Antifungal activity against Trichophyton mentagrophytes 445 after 120 hrs by broth microdilution method; type: functional, organism-based; conditions: Trichophyton mentagrophytes, 445, 120 h
Pseudomonas aeruginosa [15] = assay: Antibacterial activity against Pseudomonas aeruginosa ATCC 9027 after 48 hrs by broth microdilution method; type: functional; conditions: ATCC 9027, 48 h
Escherichia coli [16] = assay: Antibacterial activity against Escherichia coli ATCC 8739 after 48 hrs by broth microdilution method; type: functional; conditions: ATCC 8739, ATCC 8739, 48 h
Staphylococcus aureus [17] = assay: Antibacterial activity against methicillin-resistant Staphylococcus aureus H 5996/08 after 48 hrs by broth microdilution method; type: functional; conditions: H 5996/08, 48 h
Nakaseomyces glabratus [18] = assay: Antifungal activity against Candida glabrata 20/I after 48 hrs by broth microdilution method; type: functional
Staphylococcus aureus [19] = assay: Antibacterial activity against Staphylococcus aureus ATCC 6538 after 48 hrs by broth microdilution method; type: functional; conditions: ATCC 6538, 48 h
Aspergillus fumigatus [20] = assay: Antifungal activity against Aspergillus fumigatus 231 after 24 hrs by broth microdilution method; type: functional, organism-based; conditions: Aspergillus fumigatus, 231, 24 h
Lichtheimia corymbifera [21] = assay: Antifungal activity against Absidia corymbifera 272 after 24 hrs by broth microdilution method; type: functional, organism-based; conditions: Lichtheimia corymbifera, 272, 24 h
Pseudomonas aeruginosa [22] = assay: Antibacterial activity against Pseudomonas aeruginosa ATCC 9027 after 24 hrs by broth microdilution method; type: functional; conditions: ATCC 9027, 24 h
[23] = system: Mycobacterium tuberculosis; assay: Antimycobacterial activity against Mycobacterium tuberculosis CNCTC My 331/88 after 14 days by micromethod; type: functional; conditions: CNCTC My 331/88, 336 h
Candida tropicalis [24] = assay: Antifungal activity against Candida tropicalis 156 after 24 hrs by broth microdilution method; type: functional; conditions: Candida tropicalis, 156, 24 h
[25] = system: Trichophyton mentagrophytes; assay: Antifungal activity against Trichophyton mentagrophytes 445 after 72 hrs by broth microdilution method; type: functional, organism-based; conditions: Trichophyton mentagrophytes, 445, 72 h
Candida tropicalis [26] = assay: Antifungal activity against Candida tropicalis 156 after 48 hrs by broth microdilution method; type: functional; conditions: Candida tropicalis, 156, 48 h
Aspergillus fumigatus [27] = assay: Antifungal activity against Aspergillus fumigatus 231 after 48 hrs by broth microdilution method; type: functional, organism-based; conditions: Aspergillus fumigatus, 231, 48 h
Pichia kudriavzevii [28] = assay: Antifungal activity against Candida krusei E28 after 24 hrs by broth microdilution method; type: functional; conditions: E28, 24 h
[29] = system: Mycobacterium tuberculosis; assay: Antimycobacterial activity against Mycobacterium tuberculosis CNCTC My 331/88 after 21 days by micromethod; type: functional; conditions: CNCTC My 331/88, 504 h
Nakaseomyces glabratus [30] = assay: Antifungal activity against Candida glabrata 20/I after 24 hrs by broth microdilution method; type: functional
Escherichia coli [31] = assay: Antibacterial activity against Escherichia coli ATCC 8739 after 24 hrs by broth microdilution method; type: functional; conditions: ATCC 8739, ATCC 8739, 24 h
Klebsiella pneumoniae [32] = assay: Antibacterial activity against extended spectrum beta-lactamase producing Klebsiella pneumoniae J 14368/08 after 24 hrs by broth microdilution method; type: functional; conditions: J 14368/08, 24 h
Mycobacterium avium [33] = assay: Antimycobacterial activity against Mycobacterium avium CNCTC My 330/88 after 14 days by micromethod; type: functional; conditions: CNCTC My 330/88, 336 h
[34] = system: Staphylococcus epidermidis; assay: Antibacterial activity against Staphylococcus epidermidis H 6966/08 after 48 hrs by broth microdilution method; type: functional; conditions: H 6966/08, 48 h
Klebsiella pneumoniae [35] = assay: Antibacterial activity against Klebsiella pneumoniae D 11750/08 after 48 hrs by broth microdilution method; type: functional; conditions: D 11750/08, 48 h
Candida albicans [36] = assay: Antifungal activity against Candida albicans ATCC 44859 after 24 hrs by broth microdilution method; type: functional; conditions: ATCC 44859, 24 h
Mycobacterium kansasii [37] = assay: Antimycobacterial activity against Mycobacterium kansasii CNCTC My 235/80 after 21 days by micromethod; type: functional; conditions: CNCTC My 235/80, 504 h
Trichosporon asahii [38] = assay: Antifungal activity against Trichosporon asahii 1188 after 24 hrs by broth microdilution method; type: functional; conditions: Trichosporon asahii, 1188, 24 h
Enterococcus faecalis [39] = assay: Antibacterial activity against Enterococcus faecalis J 14365/08 after 48 hrs by broth microdilution method; type: functional; conditions: J 14365/08, 48 h
Trichosporon asahii [40] = assay: Antifungal activity against Trichosporon asahii 1188 after 48 hrs by broth microdilution method; type: functional; conditions: Trichosporon asahii, 1188, 48 h
Candida albicans [41] = assay: Antifungal activity against Candida albicans ATCC 44859 after 48 hrs by broth microdilution method; type: functional; conditions: ATCC 44859, 48 h
Klebsiella pneumoniae [42] = assay: Antibacterial activity against Klebsiella pneumoniae D 11750/08 after 24 hrs by broth microdilution method; type: functional; conditions: D 11750/08, 24 h

Structure (SMILES): O=C(O)c1cccc(-n2nnnc2SCc2cc([N+](=O)[O-])cc([N+](=O)[O-])c2)c1
- MIC (Mycobacterium kansasii [1]): 1000 µM (≈ 402 µg/mL)
- MIC (Mycobacterium kansasii [2]): 1000 µM (≈ 402 µg/mL)
- MIC (Mycobacterium kansasii [3]): 1000 µM (≈ 402 µg/mL)
- MIC (Mycobacterium kansasii [4]): 1000 µM (≈ 402 µg/mL)
- IC95 (Klebsiella pneumoniae [5]): > 500 µM
- IC95 (Staphylococcus aureus [6]): > 500 µM
- IC95 (Enterococcus faecalis [7]): > 500 µM
- IC95 [8]: 500 µM
- MIC (Mycobacterium avium [9]): 1000 µM (≈ 402 µg/mL)
- IC50 (Lichtheimia corymbifera [10]): > 500 µM
- IC95 (Staphylococcus aureus [11]): > 500 µM
- IC80 (Pichia kudriavzevii [12]): > 500 µM
- MIC (Mycobacterium kansasii [13]): 500 µM (≈ 201 µg/mL)
- IC50 [14]: > 500 µM
- IC95 (Pseudomonas aeruginosa [15]): > 500 µM
- IC95 (Escherichia coli [16]): > 500 µM
- IC95 (Staphylococcus aureus [17]): > 500 µM
- IC80 (Nakaseomyces glabratus [18]): > 500 µM
- IC95 (Staphylococcus aureus [19]): > 500 µM
- IC50 (Aspergillus fumigatus [20]): > 500 µM
- IC50 (Lichtheimia corymbifera [21]): > 500 µM
- IC95 (Pseudomonas aeruginosa [22]): > 500 µM
- MIC [23]: 1000 µM (≈ 402 µg/mL)
- IC80 (Candida tropicalis [24]): > 500 µM
- IC50 [25]: > 500 µM
- IC80 (Candida tropicalis [26]): > 500 µM
- IC50 (Aspergillus fumigatus [27]): > 500 µM
- IC80 (Pichia kudriavzevii [28]): > 500 µM
- MIC [29]: 1000 µM (≈ 402 µg/mL)
- IC80 (Nakaseomyces glabratus [30]): > 500 µM
- IC95 (Escherichia coli [31]): > 500 µM
- IC95 (Klebsiella pneumoniae [32]): > 500 µM
- MIC (Mycobacterium avium [33]): 1000 µM (≈ 402 µg/mL)
- IC95 [34]: > 500 µM
- IC95 (Klebsiella pneumoniae [35]): > 500 µM
- IC80 (Candida albicans [36]): > 500 µM
- MIC (Mycobacterium kansasii [37]): 1000 µM (≈ 402 µg/mL)
- IC80 (Trichosporon asahii [38]): > 500 µM
- IC95 (Enterococcus faecalis [39]): > 500 µM
- IC80 (Trichosporon asahii [40]): > 500 µM
- IC80 (Candida albicans [41]): > 500 µM
- IC95 (Klebsiella pneumoniae [42]): > 500 µM

Structure (SMILES): O=[N+]([O-])c1cc(CSc2cccc[n+]2[O-])cc([N+](=O)[O-])c1
- MIC (Mycobacterium kansasii [1]): 125 µM (≈ 38.4 µg/mL)
- MIC (Mycobacterium kansasii [2]): 32 µM (≈ 9.83 µg/mL)
- MIC (Mycobacterium kansasii [3]): 125 µM (≈ 38.4 µg/mL)
- MIC (Mycobacterium kansasii [4]): 125 µM (≈ 38.4 µg/mL)
- IC95 (Klebsiella pneumoniae [5]): > 500 µM
- IC95 (Staphylococcus aureus [6]): > 500 µM
- IC95 (Enterococcus faecalis [7]): > 500 µM
- IC95 [8]: > 500 µM
- MIC (Mycobacterium avium [9]): 1000 µM (≈ 307 µg/mL)
- IC50 (Lichtheimia corymbifera [10]): > 500 µM
- IC95 (Staphylococcus aureus [11]): > 500 µM
- IC80 (Pichia kudriavzevii [12]): > 500 µM
- MIC (Mycobacterium kansasii [13]): 16 µM (≈ 4.92 µg/mL)
- IC50 [14]: > 500 µM
- IC95 (Pseudomonas aeruginosa [15]): > 500 µM
- IC95 (Escherichia coli [16]): > 500 µM
- IC95 (Staphylococcus aureus [17]): > 500 µM
- IC80 (Nakaseomyces glabratus [18]): > 500 µM
- IC95 (Staphylococcus aureus [19]): > 500 µM
- IC50 (Aspergillus fumigatus [20]): > 500 µM
- IC50 (Lichtheimia corymbifera [21]): > 500 µM
- IC95 (Pseudomonas aeruginosa [22]): > 500 µM
- MIC [23]: 62 µM (≈ 19.1 µg/mL)
- IC80 (Candida tropicalis [24]): > 500 µM
- IC50 [25]: > 500 µM
- IC80 (Candida tropicalis [26]): > 500 µM
- IC50 (Aspergillus fumigatus [27]): > 500 µM
- IC80 (Pichia kudriavzevii [28]): > 500 µM
- MIC [29]: 62 µM (≈ 19.1 µg/mL)
- IC80 (Nakaseomyces glabratus [30]): > 500 µM
- IC95 (Escherichia coli [31]): > 500 µM
- IC95 (Klebsiella pneumoniae [32]): > 500 µM
- MIC (Mycobacterium avium [33]): 500 µM (≈ 154 µg/mL)
- IC95 [34]: > 500 µM
- IC95 (Klebsiella pneumoniae [35]): > 500 µM
- IC80 (Candida albicans [36]): > 500 µM
- MIC (Mycobacterium kansasii [37]): 32 µM (≈ 9.83 µg/mL)
- IC80 (Trichosporon asahii [38]): > 500 µM
- IC95 (Enterococcus faecalis [39]): > 500 µM
- IC80 (Trichosporon asahii [40]): > 500 µM
- IC80 (Candida albicans [41]): > 500 µM
- IC95 (Klebsiella pneumoniae [42]): > 500 µM

Structure (SMILES): CN[C@H](CC(C)C)C(=O)N[C@H]1C(=O)N[C@@H](CC(N)=O)C(=O)N[C@H]2C(=O)N[C@H]3C(=O)N[C@H](C(=O)N[C@H](C(=O)O)c4cc(O)cc(O)c4-c4cc3ccc4O)[C@H](O)c3ccc(c(Cl)c3)Oc3cc2cc(c3O[C@@H]2O[C@H](CO)[C@@H](O)[C@H](O)[C@H]2O[C@H]2C[C@](C)(N)[C@H](O)[C@H](C)O2)Oc2ccc(cc2Cl)[C@H]1O [VANCOMYCIN]
- IC95 (Staphylococcus aureus [6]): 0.35 µM
- IC95 (Enterococcus faecalis [7]): 0.7 µM
- IC95 [8]: 0.35 µM
- IC95 (Staphylococcus aureus [11]): 0.35 µM
